Experimental data as given in US12060347B2 (BRISTOL-MYERS SQUIBB COMPANY, priority 2016, dated 2024).

Target: T1, human PAR4 (Homo sapiens, UniProt Q96RI0)
T1 construct: expressed in transfected cells; host or cells: HEK293 PAR4 Clone 1.2A (BMS Arctic ID 383940)
T1 sequence (Q96RI0 18-385): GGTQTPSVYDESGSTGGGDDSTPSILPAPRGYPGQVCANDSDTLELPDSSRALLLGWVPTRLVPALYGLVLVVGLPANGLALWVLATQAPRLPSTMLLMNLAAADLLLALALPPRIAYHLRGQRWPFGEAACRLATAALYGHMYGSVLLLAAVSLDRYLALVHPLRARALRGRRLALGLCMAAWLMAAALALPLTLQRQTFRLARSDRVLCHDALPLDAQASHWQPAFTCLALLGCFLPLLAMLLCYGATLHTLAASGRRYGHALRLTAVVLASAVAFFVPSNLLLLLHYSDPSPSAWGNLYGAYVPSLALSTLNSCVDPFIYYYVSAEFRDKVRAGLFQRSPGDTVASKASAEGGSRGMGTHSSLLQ
Experiment: PAR4 FLIPR assay: antagonism of agonist-peptide-induced calcium mobilization in PAR4-expressing HEK293 cells
Format: cell-based
Conditions: H-Ala-Phe(4-F)-[…]NH2-induced intracellular calcium mobilization, 11-point curves

IC50 [nM]	SMILES
170	COc1cnc2c(-c3cc4c(OCc5ccccc5)cccc4o3)cc(C)cc2n1 [Example 43, 5-(4-(benzyloxy)benzofuran-2-yl)-2-methoxy-7-methylquinoxaline]
1.2	COc1cnc2c(-c3nc4cc(F)c(OC[C@@H](C)OC(=O)Nc5cnc(O[C@H](C)CO)nc5)cc4s3)cc(C)cc2n1 [Example 553, (R)-1-((5-fluoro-2-(2-methoxy-7-methylquinoxalin-5-yl)benzo[d]thiazol-6-yl)oxy)propan-2-yl (2-(((R)-1-hydroxypropan-2-yl)oxy)pyrimidin-5-yl)carbamate]
0.7	COc1cnc2c(-c3nc4cc(F)c(O[C@@H](C)[C@@H](C)OC(=O)Nc5ccc(N6CCCC6)nc5)cc4s3)cc(C)cc2n1 [Example 605, (2R,3S)-3-((5-fluoro-2-(2-methoxy-7-methylquinoxalin-5-yl)benzo[d]thiazol-6-yl)oxy)butan-2-yl (6-(pyrrolidin-1-yl)pyridin-3-yl)carbamate]
0.9	COc1cc(C(O)C2(C(F)(F)F)CCC2)c2nc(-c3cc(C)cc4nc(OC)cnc34)sc2c1 (single isomer, unassigned) [Example 664]
0.9	COc1cnc2c(-c3nc4c(Cl)c(F)c(OC[C@@H](C)OC(=O)Nc5ccc6[nH]c(=O)oc6c5)cc4s3)cc(C)cc2n1 [Example 373, (R)-1-((4-chloro-5-fluoro-2-(2-methoxy-7-methylquinoxalin-5-yl)benzo[d]thiazol-6-yl)oxy)propan-2-yl (2-oxo-2,3-dihydrobenzo[d]oxazol-6-yl)carbamate]
0.5	COc1ccc(NC(=O)OCCOc2cc(C)c3nc(-c4cc(CO)cc5nc(OC)cnc45)sc3c2)cn1 [Example 252, 2-((2-(7-(hydroxymethyl)-2-methoxyquinoxalin-5-yl)-4-methylbenzo[d]thiazol-6-yl)oxy)ethyl (6-methoxypyridin-3-yl)carbamate]
6.4	COCc1cnc2c(-c3nc4c(C)cc(Cl)nc4s3)cc(C)cc2n1 [Example 191, 5-chloro-2-(2-(methoxymethyl)-7-methylquinoxalin-5-yl)-7-methylthiazolo[5,4-b] pyridine]
2.2	COc1cnc2c(-c3nc4c(Cl)c(F)c(O[C@@H](C)[C@@H](C)OC(=O)Nc5cccnc5)cc4s3)cc(C)cc2n1 [Example 404, (2R,3S)-3-((4-chloro-5-fluoro-2-(2-methoxy-7-methylquinoxalin-5-yl)benzo[d]thiazol-6-yl)oxy)butan-2-yl pyridin-3-ylcarbamate]
2.8	COCc1cnc2c(-c3nc4c(C(O)C5CCC5)cc(OC)cc4s3)cc(C)cc2n1 (centres unmarked) [Example 166, Cyclobutyl(6-methoxy-2-(2-(methoxymethyl)-7-methylquinoxalin-5-yl)benzo[d]thiazol-4-yl)methanol]
3.3	COc1cnc2c(-c3nc4cc(F)c(O[C@@H](C)[C@@H](C)OC(=O)Nc5cnc(CCO)nc5)cc4s3)cc(Cl)cc2c1 [Example 579, (2R,3S)-3-((2-(6-chloro-3-methoxyquinolin-8-yl)-5-fluorobenzo[d]thiazol-6-yl)oxy)butan-2-yl (2-(2-hydroxyethyl)pyrimidin-5-yl)carbamate]
2.2	COc1cc(C(O)c2ccccc2)c2nc(-c3cc(C)cc4nc(OC)cnc34)sc2c1 (centres unmarked) [Example 629, (6-methoxy-2-(2-methoxy-7-methylquinoxalin-5-yl)benzo[d]thiazol-4-yl) (phenyl)methanol]
2.1	Cc1cc(-c2nc3cc(F)c(O[C@@H](C)[C@@H](C)OC(=O)Nc4cnc(C)nc4)cc3s2)c2ncc(OC(F)F)cc2c1 [Example 659, (2R,3S)-3((2-(3-(difluoromethoxy)-6-methylquinolin-8-yl)-5-fluorobenzo[d]thiazol-6-yl)oxy)butan-2-yl (2-methylpyrimidin-5-yl)carbamate]
18	COc1cnc2c(-c3nc4c(Cl)c(F)c(OCCOC(=O)Nc5cncs5)cc4s3)cc(C)cc2n1 [Example 384, 2-((4-chloro-5-fluoro-2-(2-methoxy-7-methylquinoxalin-5-yl)benzo[d]thiazol-6-yl)oxy)ethyl thiazol-5-ylcarbamate]
80	Cc1cc(-c2nc3ccc(OCCNC(=O)OC4CCOC4)cc3s2)c2ncc(OC(F)F)nc2c1 (centres unmarked) [Example 16, tetrahydrofuran-3-yl (2-((2-(2-(difluoromethoxy)-7-methylquinoxalin-5-yl)benzo[d]thiazol-6-yl)oxy)ethyl)carbamate]
0.4	CCCOc1cnc2c(-c3nc4cc(F)c(O[C@@H](C)[C@@H](C)OC(=O)Nc5cnc(C)nc5)cc4s3)cc(C)cc2n1 [Example 491, (2R,3S)-3-((5-fluoro-2-(7-methyl-2-propoxyquinoxalin-5-yl)benzo[d]thiazol-6-yl)oxy)butan-2-yl (2-methylpyrimidin-5-yl)carbamate]
5.2	COCc1cnc2c(-c3nc4c(Cl)c(C)c(OCCO)cc4s3)cc(C)cc2n1 [Example 327, 2-((4-chloro-2-(2-(methoxymethyl)-7-methylquinoxalin-5-yl)-5-methylbenzo[d]thiazol-6-yl)oxy)ethanol]
14	COc1cnc2c(-c3nc4cc(F)c(O[C@@H](C)[C@@H](C)OC(=O)Nc5cnc(C(=O)NC[C@@H](C)O)nc5)nc4s3)cc(C)cc2n1 [Example 752, (2R,3S)-3-((6-fluoro-2-(2-methoxy-7-methylquinoxalin-5-yl)thiazolo[5,4-b]pyridin-5-yl)oxy)butan-2-yl (2-(((R)-2-hydroxypropyl)carbamoyl)pyrimidin-5-yl)carbamate]
1.1	COCc1cnc2c(-c3nc4c(C)cc(OCCNS(=O)(=O)c5ccc(F)cc5)cc4s3)cc(C(F)(F)F)cc2n1 [Example 209, 4-fluoro-N-(2-((2-(2-(methoxymethyl)-7-(trifluoromethyl)quinoxalin-5-yl)-4-methylbenzo[d]thiazol-6-yl)oxy)ethyl)benzenesulfonamide]
1.5	COCc1cnc2c(-c3nc4c(OC)c(F)c(OC)cc4s3)cc(C)cc2n1 [Example 271, 5-fluoro-4,6-dimethoxy-2-(2-(methoxymethyl)-7-methylquinoxalin-5-yl)benzo[d]thiazole]
0.4	[2H]C(O)(c1cc(OC)cc2sc(-c3cc(C)cc4nc(COC)cnc34)nc12)C(C)(C)C (single isomer, unassigned) [Example 169, 1-(6-methoxy-2-(2-(methoxymethyl)-7-methylquinoxalin-5-yl)benzo[d]thiazol-4-yl)-2,2-dimethylpropan-1-ol-1-d1]
0.9	COc1cnc2c(-c3nc4cc(F)c(OC[C@@H](C)OC(=O)Nc5ccc(OCCO)nc5)nc4s3)cc(C)cc2n1 [Example 700, (R)-1-((6-fluoro-2-(2-methoxy-7-methylquinoxalin-5-yl)thiazolo[5,4-b]pyridin-5-yl)oxy) propan-2-yl (6-(2-hydroxyethoxy)pyridin-3-yl)carbamate]
1.2	COc1cnc2c(-c3nc4cc(F)c(O[C@@H](C)[C@@H](C)OC(=O)Nc5ccc(CCO)nc5)cc4s3)cc(Cl)cc2n1 [Example 836, (2R,3S)-3-((2-(7-chloro-2-methoxyquinoxalin-5-yl)-5-fluorobenzo[d]thiazol-6-yl)oxy)butan-2-yl (6-(2-hydroxyethyl)pyridin-3-yl)carbamate]
11	COc1cnc2c(-c3nc4cc(F)c(OC[C@@H](C)OC(=O)Nc5ccc(C(=O)N(C)CC(C)(C)O)nc5)cc4s3)cc(C)cc2n1 [Example 474, (R)-1-((5-fluoro-2-(2-methoxy-7-methylquinoxalin-5-yl)benzo[d]thiazol-6-yl)oxy)propan-2-yl (6-((2-hydroxy-2-methylpropyl)(methyl)carbamoyl)pyridin-3-yl)carbamate]
11	COCc1cnc2c(-c3nc4c(Cl)c(F)c(O)cc4s3)cc(C)cc2n1 [Example 291, 4-chloro-5-fluoro-2-(2-(methoxymethyl)-7-methylquinoxalin-5-yl) benzo[d]thiazol-6-ol]
9.2	COc1cnc2c(-c3nc4c(Cl)c(F)c(OCCOC(=O)Nc5cccnc5)cc4s3)cc(C)cc2n1 [Example 331, 2-((4-chloro-5-fluoro-2-(2-methoxy-7-methylquinoxalin-5-yl)benzo[d]thiazol-6-yl)oxy)ethyl pyridin-3-ylcarbamate]
1.6	COc1cnc2c(-c3nc4cc(F)c(O[C@@H](C)[C@@H](C)OC(=O)Nc5ccc(C)nc5)cc4s3)cc(Cl)cc2n1 [Example 822, (2R,3S)-3-((2-(7-chloro-2-methoxyquinoxalin-5-yl)-5-fluorobenzo[d]thiazol-6-yl)oxy)butan-2-yl (6-methylpyridin-3-yl)carbamate]
15	COc1ccc(NC(=O)OCCOc2cc3sc(-c4cc(C)cc5nc(OC)cnc45)nc3cc2F)cn1 [Example 341, 2-((5-fluoro-2-(2-methoxy-7-methylquinoxalin-5-yl)benzo[d]thiazol-6-yl)oxy) ethyl (6-methoxypyridin-3-yl)carbamate]
0.3	COc1cnc2c(-c3nc4cc(F)c(O[C@@H](C)[C@@H](C)OC(=O)Nc5cncnc5)cc4s3)cc(C)cc2n1 [Example 410, (2R,3S)-3-((5-fluoro-2-(2-methoxy-7-methylquinoxalin-5-yl)benzo[d]thiazol-6-yl)oxy)butan-2-yl pyrimidin-5-ylcarbamate]
54	COCc1cnc2c(-c3nc4c(C)cc(OCCNS(=O)(=O)c5ccc(F)cc5)cc4s3)cc(C(N)=O)cc2n1 [Example 225, 8-(6-(2-(4-fluorophenylsulfonamido)ethoxy)-4-methylbenzo[d]thiazol-2-yl)-3-(methoxymethyl)quinoxaline-6-carboxamide]
